Measurements reported in paper PMC8338929, “Acetylation turns leucine into a drug by membrane transporter switching” (Scientific Reports, 2021).
pIC50: −log10 of the molar value. “Also recorded” adds a separate entry of the source.

Experiments:
Assay type in all cases: cell-based
human LAT1 (SLC7A5) = target: T1, human LAT1 (SLC7A5) (Homo sapiens, UniProt Q01650); experiment: LAT1-mediated cellular uptake in transfected MDCK-II cells; conditions: HBSS pH 7.4, 3 min, 37 °C
T1 construct: host or cells: MDCK-II
T1 sequence (Q01650 whole entry): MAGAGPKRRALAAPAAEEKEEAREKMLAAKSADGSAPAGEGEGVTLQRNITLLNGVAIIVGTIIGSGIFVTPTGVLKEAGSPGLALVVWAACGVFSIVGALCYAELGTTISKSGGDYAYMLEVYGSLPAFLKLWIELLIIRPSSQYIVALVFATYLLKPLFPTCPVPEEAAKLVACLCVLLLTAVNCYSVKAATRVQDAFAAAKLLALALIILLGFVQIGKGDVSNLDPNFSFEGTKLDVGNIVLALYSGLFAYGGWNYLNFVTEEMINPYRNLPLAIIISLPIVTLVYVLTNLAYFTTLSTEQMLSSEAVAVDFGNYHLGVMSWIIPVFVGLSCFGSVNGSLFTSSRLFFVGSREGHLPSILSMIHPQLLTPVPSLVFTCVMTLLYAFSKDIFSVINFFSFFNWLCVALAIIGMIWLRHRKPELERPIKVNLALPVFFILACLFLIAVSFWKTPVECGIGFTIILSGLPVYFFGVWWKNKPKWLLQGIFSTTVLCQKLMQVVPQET
T1 sequence (P08195 102-630 partner): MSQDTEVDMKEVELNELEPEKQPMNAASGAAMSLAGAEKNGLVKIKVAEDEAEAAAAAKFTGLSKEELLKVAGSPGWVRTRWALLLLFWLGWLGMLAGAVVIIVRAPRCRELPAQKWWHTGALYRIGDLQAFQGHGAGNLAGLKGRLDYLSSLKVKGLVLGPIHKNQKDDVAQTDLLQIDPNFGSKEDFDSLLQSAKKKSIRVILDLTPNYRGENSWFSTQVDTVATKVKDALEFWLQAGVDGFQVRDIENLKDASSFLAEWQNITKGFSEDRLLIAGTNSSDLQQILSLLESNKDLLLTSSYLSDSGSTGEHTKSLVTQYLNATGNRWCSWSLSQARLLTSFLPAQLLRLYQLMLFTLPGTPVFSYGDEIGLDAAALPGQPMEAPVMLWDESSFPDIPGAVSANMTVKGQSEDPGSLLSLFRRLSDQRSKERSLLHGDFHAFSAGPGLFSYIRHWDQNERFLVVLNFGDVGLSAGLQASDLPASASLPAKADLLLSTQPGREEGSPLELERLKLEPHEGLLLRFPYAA
Method: (§1) Transport studies with human PepT1 (SLC15A1), LAT1 (SLC7A5) and MCT1 (SLC16A1) were conducted in MDCK-II cells expressing the human transporter or control cells expressing a vector with Green Fluorescence Protein. Cells were transfected using a proprietary, transient transfection system (OPTI-EXPRESSION Technology, BioIVT). The results from the control cells were used to correct for substrate permeation by routes other than the transporter being investigated in the study. […] Specifically, Net Transporter Mediated Substrate Uptake (pmol/min/cm^2) = (Cellular accumulation in the presence of the transporter) − (Mean cellular accumulation in the absence of the transporter). MDCK-II cells were maintained in DMEM with low glucose and 10% FBS. Cells were used at passages up to 40 were seeded at 60,000 ± 10,000 cells/well on 96-well plates approximately 24 h before transfection, and transport assays were performed approximately 48 h after transfection. […]
(§2) Transport studies with PepT1 were conducted in 96-well cell culture plate with wells containing a monolayer of MDCK-II cells grown on a permeable support and a corresponding 96-well receiver tray. […] Then a 30-µL sample was taken and mixed with 200 µL of scintillation fluid and scintillation counted (1450 Microbeta, Perkin-Elmer). […]

human PepT1 (SLC15A1) [1] = target: T2, human PepT1 (SLC15A1) (Homo sapiens, UniProt P46059); experiment: PepT1-mediated cellular uptake in transfected MDCK-II cells; conditions: pH 5.5, 37 °C
T2 construct: host or cells: MDCK-II
T2 sequence (P46059 1-708): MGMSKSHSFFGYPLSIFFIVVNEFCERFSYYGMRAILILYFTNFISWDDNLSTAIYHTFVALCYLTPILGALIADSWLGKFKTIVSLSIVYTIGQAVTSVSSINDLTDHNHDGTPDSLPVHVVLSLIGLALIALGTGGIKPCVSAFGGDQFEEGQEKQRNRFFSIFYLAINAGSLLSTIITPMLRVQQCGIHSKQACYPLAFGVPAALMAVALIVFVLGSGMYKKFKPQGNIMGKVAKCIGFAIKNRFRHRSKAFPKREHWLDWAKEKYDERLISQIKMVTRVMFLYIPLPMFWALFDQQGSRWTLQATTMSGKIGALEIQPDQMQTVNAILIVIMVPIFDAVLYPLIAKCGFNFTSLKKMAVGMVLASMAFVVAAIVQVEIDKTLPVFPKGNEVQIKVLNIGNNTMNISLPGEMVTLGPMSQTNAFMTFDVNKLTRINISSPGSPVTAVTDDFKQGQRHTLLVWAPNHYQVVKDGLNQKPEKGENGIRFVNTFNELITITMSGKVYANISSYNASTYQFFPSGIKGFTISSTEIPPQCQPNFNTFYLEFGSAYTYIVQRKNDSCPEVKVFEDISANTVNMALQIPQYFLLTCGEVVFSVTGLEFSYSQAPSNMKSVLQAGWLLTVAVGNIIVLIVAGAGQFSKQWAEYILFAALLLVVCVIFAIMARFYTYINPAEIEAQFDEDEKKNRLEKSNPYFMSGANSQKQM
Method: as §1, §2

human PepT1 (SLC15A1) [2] = target: T2, human PepT1 (SLC15A1); experiment: Inhibition of PepT1 uptake of probe substrate Gly-Sar in MDCK-II cells; conditions: probe Gly-Sar 50 µM; positive control losartan 200 µM; pH 5.5
Method: as §1, §2

CC(=O)N[C@@H](CC(C)C)C(=O)O [N-acetyl-L-leucine]
substrate of LAT1 (uptake) (human LAT1 (SLC7A5)): not transported
substrate of LAT1 (uptake) (human LAT1 (SLC7A5); listed as N-acetyl-leucine): not a substrate
substrate of PepT1 (uptake) (human PepT1 (SLC15A1) [1]): not transported; also recorded: not a substrate
pIC50 (human PepT1 (SLC15A1) [2]): 3.13
